According to patent US20260262643A1, “HERBICIDAL BENZOXAZINES” (FMC CORPORATION, priority 2022, published 2026):

Columns and labels:
ryegrass, Italian [1] = test: Test C preemergence; type: in vivo, Lolium multiflorum; conditions: for Plant response rating, Ryegrass, Italian: Preemergence; for Ryegrass, Italian plant response rating: preemergence
How it was run: (§1)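 Pre: seeds in loam/sand, directed soil spray. Post: 1–2 leaf plants, 2–10 cm. Cmpd in non-phytotoxic solvent + surfactant. Greenhouse 10 d; visual rating vs untreated, 0 = none, 100 = complete control.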

ducksalad = test: Test D flooded paddy test; type: in vivo, Heteranthera limosa; conditions: 250 g ai/ha, applied to paddy water, visual rating after 13 to 14 days, scale 0 to 100 (0 no effect, 100 complete control)
How it was run: (§2)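 Seedlings reached the 2-leaf stage, then pots were flooded to 3 cm over the soil surface. Compound was applied into the water, depth was maintained, and plants stayed in the greenhouse 13 to 14 days before visual scoring (0–100) relative to controls.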

corn [2] = test: Test C preemergence; type: in vivo, Zea mays; conditions: for Plant response rating, Corn: Preemergence; for Corn plant response rating: preemergence
How it was run: as §1

ragweed [3] = test: Test C postemergence; type: in vivo, Ambrosia artemisiifolia; conditions: 10 days
How it was run: as §1

pigweed, palmer [4] = test: Test C postemergence; type: in vivo, Amaranthus palmeri; conditions: 10 days
How it was run: as §1

corn [5] = test: Test C postemergence; type: in vivo, Zea mays; conditions: 10 days
How it was run: as §1

green foxtail [6] = test: Test C preemergence; type: in vivo, Setaria viridis; conditions: for Plant response rating, Foxtail, Green: Preemergence; for Foxtail, Green plant response rating: preemergence
How it was run: as §1

kochia [7] = test: Test C preemergence; type: in vivo, Bassia scoparia; conditions: for Plant response rating, Kochia: Preemergence; for Kochia plant response rating: preemergence
How it was run: as §1

barnyardgrass [8] = test: Test C preemergence; type: in vivo, Echinochloa crusgalli; conditions: for Plant response rating, Barnyardgrass: Preemergence; for Barnyardgrass plant response rating: preemergence
How it was run: as §1

blackgrass [9] = test: Test C postemergence; type: in vivo, Alopecurus myosuroides; conditions: 10 days
How it was run: as §1

oat, wild [10] = test: Test C preemergence; type: in vivo, Avena fatua; conditions: for Plant response rating, Oat, Wild: Preemergence; for Oat, Wild plant response rating: preemergence
How it was run: as §1

ryegrass, Italian [11] = test: Test C postemergence; type: in vivo, Lolium multiflorum; conditions: 10 days
How it was run: as §1

ragweed [12] = test: Test C preemergence; type: in vivo, Ambrosia artemisiifolia; conditions: for Plant response rating, Ragweed: Preemergence; for Ragweed plant response rating: preemergence
How it was run: as §1

pigweed, palmer [13] = test: Test C preemergence; type: in vivo, Amaranthus palmeri; conditions: for Plant response rating, Pigweed, Palmer: Preemergence; for Pigweed, Palmer plant response rating: preemergence
How it was run: as §1

soybean [14] = test: Test C preemergence; type: in vivo, Glycine max; conditions: for Plant response rating, Soybean: Preemergence; for Soybean plant response rating: preemergence
How it was run: as §1

galium = test: Test C postemergence; type: in vivo, Galium aparine; conditions: 10 days
How it was run: as §1

blackgrass [15] = test: Test C preemergence; type: in vivo, Alopecurus myosuroides; conditions: for Plant response rating, Blackgrass: Preemergence; for Blackgrass plant response rating: preemergence
How it was run: as §1

wheat [16] = test: Test C postemergence; type: in vivo, Triticum aestivum; conditions: 10 days
How it was run: as §1

green foxtail [17] = test: Test C postemergence; type: in vivo, Setaria viridis; conditions: 10 days
How it was run: as §1

sedge, umbrella = test: Test D flooded paddy test; type: in vivo, Cyperus difformis; conditions: 250 g ai/ha, applied to paddy water, visual rating after 13 to 14 days, scale 0 to 100 (0 no effect, 100 complete control)
How it was run: as §2

barnyardgrass [18] = test: Test D flooded paddy test; type: in vivo, Echinochloa crus-galli; conditions: 250 g ai/ha, applied to paddy water, visual rating after 13 to 14 days, scale 0 to 100 (0 no effect, 100 complete control)
How it was run: as §2

kochia [19] = test: Test C postemergence; type: in vivo, Bassia scoparia; conditions: 10 days
How it was run: as §1

wheat [20] = test: Test C preemergence; type: in vivo, Triticum aestivum; conditions: for Plant response rating, Wheat: Preemergence; for Wheat plant response rating: preemergence
How it was run: as §1

horseweed = test: Test C postemergence; type: in vivo, Erigeron canadensis; conditions: 10 days
How it was run: as §1

soybean [21] = test: Test C postemergence; type: in vivo, Glycine max; conditions: 10 days
How it was run: as §1

rice = test: Test D flooded paddy test; type: in vivo, Oryza sativa; conditions: 250 g ai/ha, applied to paddy water, visual rating after 13 to 14 days, scale 0 to 100 (0 no effect, 100 complete control)
How it was run: as §2

barnyardgrass [22] = test: Test C postemergence; type: in vivo, Echinochloa crusgalli; conditions: 10 days
How it was run: as §1

oat, wild [23] = test: Test C postemergence; type: in vivo, Avena fatua; conditions: 10 days
How it was run: as §1

[24] = 500 g ai/ha, visual rating after 10 days, 0 to 100 scale (0 no effect, 100 complete control)
[25] = Test C, 125 g ai/ha, 0 to 100 scale (0 no effect, 100 complete control)
[26] = 125 g ai/ha, postemergence, 0 to 100 scale, 0 no effect, 100 complete control
[27] = Postemergence, 500 g ai/ha, visual 0 to 100 scale (0 no effect, 100 complete control)
[28] = 500 g ai/ha, 0 to 100 scale (0 no effect, 100 complete control)
[29] = 125 g ai/ha, 0 to 100 scale, 0 no effect, 100 complete control
[30] = 500 g ai/ha, postemergence, 0 to 100 scale (0 no effect, 100 complete control)
[31] = Postemergence, 125 g ai/ha, 0 to 100 scale (0 no effect, 100 complete control)

CC(C)c1ncn(-c2ccc(S(=O)(=O)C(F)(F)F)c(C(=O)N3C[C@H](C)Oc4c(Cl)cccc43)c2)n1 [Compound 229] was tested, and the “Plant response rating, Ryegrass, Italian” value (ryegrass, Italian [1]; [24]) was 10, the “Ryegrass, Italian plant response rating” value (ryegrass, Italian [1]; [25]) was 0 and the “Plant response rating, Ducksalad (Flood)” value (ducksalad) was 0. The “Plant response rating, Corn” value (corn [2]; [24]) was 0, the “Corn plant response rating” value (corn [2]; [25]) was 0 and the “Plant response rating, Ragweed” value (ragweed [3]; [26]) was 0. The “Plant response rating, Ragweed” value (ragweed [3]; [27]) was 0, the “Plant response rating, Pigweed, Palmer” value (pigweed, palmer [4]; [26]) was 0 and the “Plant response rating, Pigweed, Palmer” value (pigweed, palmer [4]; [27]) was 0. For the same compound, the “Plant response rating, Corn” value (corn [5]; [26]) was 0, the “Plant response rating, Corn” value (corn [5]; [27]) was 0 and the “Plant response rating, Foxtail, Green” value (green foxtail [6]; [24]) was 0. The “Foxtail, Green plant response rating” value (green foxtail [6]; [25]) was 0, the “Plant response rating, Kochia” value (kochia [7]; [24]) was 0 and the “Kochia plant response rating” value (kochia [7]; [25]) was 0. For the same compound, the “Plant response rating, Barnyardgrass” value (barnyardgrass [8]; [24]) was 0, the “Barnyardgrass plant response rating” value (barnyardgrass [8]; [25]) was 0 and the “Plant response rating, Blackgrass” value (blackgrass [9]; [26]) was 0. The “Plant response rating, Blackgrass” value (blackgrass [9]; [27]) was 0, the “Plant response rating, Oat, Wild” value (oat, wild [10]; [24]) was 0 and the “Oat, Wild plant response rating” value (oat, wild [10]; [25]) was 0. The “Plant response rating, Ryegrass, Italian” value (ryegrass, Italian [11]; [26]) was 0, the “Plant response rating, Ragweed” value (ragweed [12]; [24]) was 0 and the “Ragweed plant response rating” value (ragweed [12]; [25]) was 0. The “Plant response rating, Pigweed, Palmer” value (pigweed, palmer [13]; [24]) was 0, the “Pigweed, Palmer plant response rating” value (pigweed, palmer [13]; [25]) was 0 and the “Plant response rating, Soybean” value (soybean [14]; [24]) was 0. For the same compound, the “Soybean plant response rating” value (soybean [14]; [25]) was 0, the “Plant response rating, Galium” value (galium; [26]) was 0 and the “Plant response rating, Galium” value (galium; [27]) was 0. For the same compound, the “Plant response rating, Blackgrass” value (blackgrass [15]; [24]) was 0, the “Blackgrass plant response rating” value (blackgrass [15]; [25]) was 0 and the “Plant response rating, Wheat” value (wheat [16]; [26]) was 0. The “Plant response rating, Wheat” value (wheat [16]; [27]) was 0, the “Plant response rating, Foxtail, Green” value (green foxtail [17]; [26]) was 0 and the “Plant response rating, Foxtail, Green” value (green foxtail [17]; [27]) was 0. The “Plant response rating, Sedge, Umbrella (Flood)” value (sedge, umbrella) was 0, the “Plant response rating, Barnyardgrass (Flood)” value (barnyardgrass [18]) was 0 and the “Plant response rating, Kochia” value (kochia [19]; [26]) was 0. The “Plant response rating, Kochia” value (kochia [19]; [27]) was 0, the “Plant response rating, Wheat” value (wheat [20]; [24]) was 0 and the “Wheat plant response rating” value (wheat [20]; [25]) was 0. For the same compound, the “Plant response rating, Horseweed” value (horseweed; [26]) was 0, the “Plant response rating, Horseweed” value (horseweed; [27]) was 0 and the “Plant response rating, Soybean” value (soybean [21]; [26]) was 40. For the same compound, the “Plant response rating, Soybean” value (soybean [21]; [27]) was 40, the “Plant response rating, Rice (Flood)” value (rice) was 0 and the “Plant response rating, Barnyardgrass” value (barnyardgrass [22]; [26]) was 0. For the same compound, the “Plant response rating, Barnyardgrass” value (barnyardgrass [22]; [27]) was 0, the “Plant response rating, Oat, Wild” value (oat, wild [23]; [26]) was 0 and the “Plant response rating, Oat, Wild” value (oat, wild [23]; [27]) was 0.

In the case of CCOCC1CN(C(=O)c2cc(-n3cnc(C4CCC4)n3)ccc2OC)c2cccc(Cl)c2O1 (stereo not shown) [Compound 377], the “Ryegrass, Italian plant response rating” value (ryegrass, Italian [1]; [28]) is reported as 70, the “Plant response rating, Ryegrass, Italian” value (ryegrass, Italian [1]; [29]) is reported as 60 and the “Plant response rating, Ducksalad (Flood)” value (ducksalad) is reported as 15. For the same compound, the “Corn plant response rating” value (corn [2]; [28]) was 20, the “Plant response rating, Corn” value (corn [2]; [29]) was 0 and the “Plant response rating, Ragweed” value (ragweed [3]; [30]) was 90. For the same compound, the “Plant response rating, Ragweed” value (ragweed [3]; [31]) was 80, the “Plant response rating, Pigweed, Palmer” value (pigweed, palmer [4]; [30]) was 100 and the “Plant response rating, Pigweed, Palmer” value (pigweed, palmer [4]; [31]) was 90. For the same compound, the “Plant response rating, Corn” value (corn [5]; [30]) was 30, the “Plant response rating, Corn” value (corn [5]; [31]) was 20 and the “Foxtail, Green plant response rating” value (green foxtail [6]; [28]) was 100. The “Plant response rating, Foxtail, Green” value (green foxtail [6]; [29]) was 50, the “Kochia plant response rating” value (kochia [7]; [28]) was 100 and the “Plant response rating, Kochia” value (kochia [7]; [29]) was 70. For the same compound, the “Barnyardgrass plant response rating” value (barnyardgrass [8]; [28]) was 100, the “Plant response rating, Barnyardgrass” value (barnyardgrass [8]; [29]) was 40 and the “Plant response rating, Blackgrass” value (blackgrass [9]; [30]) was 20. The “Plant response rating, Blackgrass” value (blackgrass [9]; [31]) was 0, the “Oat, Wild plant response rating” value (oat, wild [10]; [28]) was 20 and the “Plant response rating, Oat, Wild” value (oat, wild [10]; [29]) was 20. For the same compound, the “Plant response rating, Ryegrass, Italian” value (ryegrass, Italian [11]; [30]) was 50, the “Plant response rating, Ryegrass, Italian” value (ryegrass, Italian [11]; [31]) was 40 and the “Ragweed plant response rating” value (ragweed [12]; [28]) was 70. For the same compound, the “Plant response rating, Ragweed” value (ragweed [12]; [29]) was 30, the “Pigweed, Palmer plant response rating” value (pigweed, palmer [13]; [28]) was 100 and the “Plant response rating, Pigweed, Palmer” value (pigweed, palmer [13]; [29]) was 100. The “Soybean plant response rating” value (soybean [14]; [28]) was 90, the “Plant response rating, Soybean” value (soybean [14]; [29]) was 60 and the “Plant response rating, Galium” value (galium; [30]) was 100. For the same compound, the “Plant response rating, Galium” value (galium; [31]) was 100, the “Blackgrass plant response rating” value (blackgrass [15]; [28]) was 20 and the “Plant response rating, Blackgrass” value (blackgrass [15]; [29]) was 0. For the same compound, the “Plant response rating, Wheat” value (wheat [16]; [30]) was 30, the “Plant response rating, Wheat” value (wheat [16]; [31]) was 20 and the “Plant response rating, Foxtail, Green” value (green foxtail [17]; [30]) was 40. The “Plant response rating, Foxtail, Green” value (green foxtail [17]; [31]) was 20, the “Plant response rating, Sedge, Umbrella (Flood)” value (sedge, umbrella) was 55 and the “Plant response rating, Barnyardgrass (Flood)” value (barnyardgrass [18]) was 0. The “Plant response rating, Kochia” value (kochia [19]; [30]) was 90, the “Plant response rating, Kochia” value (kochia [19]; [31]) was 90 and the “Wheat plant response rating” value (wheat [20]; [28]) was 20. For the same compound, the “Plant response rating, Wheat” value (wheat [20]; [29]) was 0, the “Plant response rating, Horseweed” value (horseweed; [30]) was 30 and the “Plant response rating, Horseweed” value (horseweed; [31]) was 50. For the same compound, the “Plant response rating, Soybean” value (soybean [21]; [30]) was 100, the “Plant response rating, Soybean” value (soybean [21]; [31]) was 100 and the “Plant response rating, Rice (Flood)” value (rice) was 0. For the same compound, the “Plant response rating, Barnyardgrass” value (barnyardgrass [22]; [30]) was 50, the “Plant response rating, Barnyardgrass” value (barnyardgrass [22]; [31]) was 30 and the “Plant response rating, Oat, Wild” value (oat, wild [23]; [30]) was 0. The “Plant response rating, Oat, Wild” value (oat, wild [23]; [31]) was 0.
